Experimental findings from publication PMC11945486, “TAS1R2/TAS1R3 Single-Nucleotide Polymorphisms Affect Sweet Taste Receptor Activation by Sweeteners: The SWEET Project” (Nutrients, 2025) are described below.

Read-outs that look alike come from different tables or passages of the source. No end group written: not given here.

For the experiment, the target named is T1, human TAS1R2-WT/TAS1R3-T716M (Homo sapiens, UniProt Q7RTX0+Q8TE23, T716M).
T1 construct: expressed in transfected cells; host or cells: HEK293T stably expressing Gα16gust44
T1 sequence (Q8TE23 20-839): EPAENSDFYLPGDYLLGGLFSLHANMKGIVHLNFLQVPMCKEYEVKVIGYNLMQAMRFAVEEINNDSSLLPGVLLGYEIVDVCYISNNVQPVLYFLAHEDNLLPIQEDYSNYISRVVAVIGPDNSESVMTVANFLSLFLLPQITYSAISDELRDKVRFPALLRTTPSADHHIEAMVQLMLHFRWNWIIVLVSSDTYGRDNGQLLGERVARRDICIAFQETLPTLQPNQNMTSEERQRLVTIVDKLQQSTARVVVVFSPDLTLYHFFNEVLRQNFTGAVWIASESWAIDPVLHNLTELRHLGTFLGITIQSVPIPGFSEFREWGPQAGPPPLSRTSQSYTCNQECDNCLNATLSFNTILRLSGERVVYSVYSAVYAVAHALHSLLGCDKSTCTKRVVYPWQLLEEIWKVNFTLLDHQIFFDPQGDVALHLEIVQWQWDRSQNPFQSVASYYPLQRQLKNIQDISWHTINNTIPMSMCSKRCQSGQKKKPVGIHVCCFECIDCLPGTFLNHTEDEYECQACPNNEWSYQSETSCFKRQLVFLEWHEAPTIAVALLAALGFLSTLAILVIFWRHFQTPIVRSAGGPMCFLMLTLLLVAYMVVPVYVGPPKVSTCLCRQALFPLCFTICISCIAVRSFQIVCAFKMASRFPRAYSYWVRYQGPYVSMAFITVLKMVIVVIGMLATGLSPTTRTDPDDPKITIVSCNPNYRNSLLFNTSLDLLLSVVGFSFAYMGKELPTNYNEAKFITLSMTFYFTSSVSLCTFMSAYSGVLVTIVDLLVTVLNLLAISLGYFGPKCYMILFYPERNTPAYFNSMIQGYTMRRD
T1 sequence (Q7RTX0 21-852 T716M): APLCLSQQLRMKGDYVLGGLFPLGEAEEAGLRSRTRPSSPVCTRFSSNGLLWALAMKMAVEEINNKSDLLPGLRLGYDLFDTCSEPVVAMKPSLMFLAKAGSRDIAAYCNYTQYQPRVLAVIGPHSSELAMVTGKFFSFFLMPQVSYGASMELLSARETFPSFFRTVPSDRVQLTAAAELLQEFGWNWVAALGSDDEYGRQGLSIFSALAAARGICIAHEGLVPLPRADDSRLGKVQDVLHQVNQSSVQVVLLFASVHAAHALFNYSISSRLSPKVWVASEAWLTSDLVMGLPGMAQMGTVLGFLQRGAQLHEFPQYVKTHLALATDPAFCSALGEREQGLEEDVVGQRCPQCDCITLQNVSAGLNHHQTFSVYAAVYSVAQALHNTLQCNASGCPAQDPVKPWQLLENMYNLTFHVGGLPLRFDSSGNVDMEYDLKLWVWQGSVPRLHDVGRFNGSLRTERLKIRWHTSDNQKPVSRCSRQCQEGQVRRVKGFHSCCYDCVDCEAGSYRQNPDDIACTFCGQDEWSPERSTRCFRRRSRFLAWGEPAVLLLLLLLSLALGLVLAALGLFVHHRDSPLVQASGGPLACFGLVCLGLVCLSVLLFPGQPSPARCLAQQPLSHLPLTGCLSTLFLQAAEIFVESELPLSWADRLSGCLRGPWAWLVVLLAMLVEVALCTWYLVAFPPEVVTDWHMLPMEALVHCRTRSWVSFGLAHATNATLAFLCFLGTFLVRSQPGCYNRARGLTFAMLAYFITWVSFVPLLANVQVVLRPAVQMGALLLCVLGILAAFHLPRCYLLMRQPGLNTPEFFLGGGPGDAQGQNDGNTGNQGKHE
Briefly: Calcium mobilisation assay, TAS1R2-WT with TAS1R3 variant T716M. Conditions: for Max ΔF/F0: maximal signal amplitude. It is filed as cell-based. The source says:
The coding sequences for TAS1R2 and TAS1R3 were commercially synthesised, and the human codon was optimised for expression in human cells. The coding sequences of human TAS1R2 and TAS1R3 were subcloned and inserted into the mammalian expression vectors pcDNA6/myc-HisA and pcDNA4/myc-HisA (Invitrogen; Thermo Fisher Scientific; Illkirch, France) between the EcoRI and NotI restriction sites, generating the plasmids pcDNA6-TAS1R2 and pcDNA4-TAS1R3, respectively. To increase protein expression in mammalian cells, an upstream start codon was used, which was a sequence called MAX, corresponding to the QBI SP163 element also described in pcDNA4-HisMax (Invitrogen; Thermo Fisher Scientific; Illkirch, France). To measure the expression level of the receptor by immunohistochemistry, we used the FLAG sequence ([…]) in the C-terminal position, which encodes the FLAG tag epitope. SNP variants of TAS1R2 and TAS1R3 were constructed based on […], respectively, using site-directed mutagenesis (Genewiz; Leipzig, Germany).
The HEK293T cells were kindly provided by Jay P. Slack (Givaudan Flavors Corporation; Cincinnati, OH, USA). HEK293T cells stably transfected with Gα16gust44 [43, 67] were seeded in poly-D-lysine-coated clear-bottom black 96-well plates (0.35 × 10^5 cells/well) in high-glucose DMEM supplemented with 2 mM GlutaMAX, 10% dialysed foetal bovine serum with penicillin/streptomycin and G418 (400 μg/mL) at 37 °C and 6.3% CO2 in a humidified atmosphere as previously reported. […] As a negative control, HEK293T cells were mock-transfected with the empty expression vector. After a further 24 h of incubation, the HEK293T cells were washed with C1 buffer (130 mM NaCl, 5 mM KCl, 10 mM HEPES pH 7.4 and 2 mM CaCl2). The 96-well plates containing the cells were then stimulated with sweet-tasting compounds. […] Different concentration ranges were tested depending on the sweet compound injected. The Ca^2+ changes were expressed as fractional changes in fluorescent light intensity: ΔF/F = (F − F0)/F0, where F was the fluorescent light intensity at each point, and F0 was the value of emitted fluorescent light prior to stimulus application. To calculate dose–response relationships, the changes in fluorescence upon stimulus application were averaged, mock-subtracted and baseline-corrected. The dose–response data obtained were adjusted using a 4-parameter logistic equation. The half-maximal effective concentrations (EC50 values) and maximal signal amplitudes were calculated using SigmaPlot software (version 15.0) (Systat Software; San Jose, CA, USA).
For in vitro calcium mobilisation assay performed on hTAS1R2-SNPs, hTAS1R3-SNPs and mTAS1R3-I60T, 6 to 7 concentrations were tested for each sweet compound, plus buffer alone. All concentration–receptor combinations were measured in duplicate, and each experiment was repeated at least 4 times (8 wells/concentration). Results were expressed for each concentration as ΔF/F mean ± SEM and represented as dose–response curves.

Consider `C=C(C)[C@@H]1CC=C(/C=N/O)CC1` [Perillartine, perillartine], for which the “R1 = Variant EC50/WT EC50” value is given as 1.6 and the “Max ΔF/F0” value was 1.73 ± 0.33. Besides, the EC50 (read-out: EC50) is 21.6 ± 11.4 µM.
With `O=S(=O)(O)NC1CCCCC1` [Cyclamate, cyclamate], the EC50 (read-out: EC50) amounted to 1860 ± 45 µM.
Turning to `C=C1C[C@@]23CC[C@H]4[C@@](C)(CCC[C@@]4(C)C(=O)O[C@@H]4O[C@H](CO)[C@@H](O)[C@H](O[C@@H]5O[C@H](CO)[C@@H](O)[C@H](O)[C@H]5O)[C@H]4O[C@@H]4O[C@H](CO)[C@@H](O)[C@H](O)[C@H]4O)[C@@H]2CC[C@]1(O[C@@H]1O[C@H](CO)[C@@H](O)[C@H](O[C@@H]2O[C@H](CO)[C@@H](O)[C@H](O)[C@H]2O)[C@H]1O[C@@H]1O[C@H](CO)[C@@H](O)[C@H](O)[C@H]1O)C3` [Rebaudioside M, rebaudioside M], the “R1 = Variant EC50/WT EC50” value was found to be 0.8 and the “Max ΔF/F0” value amounted to 1.10 ± 0.06. The concentration giving a half-maximal response (EC50) (read-out: EC50) worked out at 30.7 ± 4 µM.
The corresponding values for `OC[C@H]1O[C@H](O[C@]2(CCl)O[C@H](CCl)[C@@H](O)[C@@H]2O)[C@H](O)[C@@H](O)[C@H]1Cl` [Sucralose] are 1.5, 0.47 ± 0.02 and 161 ± 14 µM.
The corresponding values for `CC1=CC(=O)NS(=O)(=O)O1` [Acesulfame K, acesulfame K] are 1.2, 0.30 ± 0.01 and 739 ± 72 µM.
With “brazzein (QDKCKKVYENYPVSKCQLANQCNYDCKLDKHARSGECFYDEKRNLQCICDYCEY; ends and bridges not checked; cysteine pairing not given here; UniProt P56552 1-54, looked up) [sweet-tasting protein obtained by recombinant production using the yeast Pichia pastoris]”, the “R1 = Variant EC50/WT EC50” value is given as 1.0 and the “Max ΔF/F0” value was 0.94 ± 0.04. In addition, for the setting “brazzein”, the EC50 worked out at 112.6 ± 13.6 µg/mL.
As for thaumatin, the “R1 = Variant EC50/WT EC50” value turned out to be 1.0 and the “Max ΔF/F0” value was 0.76 ± 0.04. Further, the EC50 (read-out: EC50) amounted to 10 ± 0.5 µM.
On the same counts, the results for `COC(=O)[C@H](Cc1ccccc1)NC(=O)[C@H](CC(=O)O)NCCC(C)(C)C` [Neotame] are 1.1, 0.54 ± 0.01 and 1.3 ± 0.06 µM.
For `C[C@H](CC[C@@H](O[C@@H]1O[C@H](CO[C@@H]2O[C@H](CO)[C@@H](O)[C@H](O)[C@H]2O)[C@@H](O)[C@H](O)[C@H]1O[C@@H]1O[C@H](CO)[C@@H](O)[C@H](O)[C@H]1O)C(C)(C)O)[C@H]1CC[C@@]2(C)[C@@H]3CC=C4[C@@H](CC[C@H](O[C@@H]5O[C@H](CO[C@@H]6O[C@H](CO)[C@@H](O)[C@H](O)[C@H]6O)[C@@H](O)[C@H](O)[C@H]5O)C4(C)C)[C@]3(C)[C@H](O)C[C@]12C` [Mogroside V, mogroside V], the “R1 = Variant EC50/WT EC50” value is reported as 1.2 and the “Max ΔF/F0” value stood at 1.01 ± 0.01. Moreover, for the setting “read-out: EC50”, the EC50 stood at 36.4 ± 1 µM.
On the same counts, the results for `COc1ccc(CCC(=O)c2c(O)cc(O[C@@H]3O[C@H](CO)[C@@H](O)[C@H](O)[C@H]3O[C@@H]3O[C@@H](C)[C@H](O)[C@@H](O)[C@H]3O)cc2O)cc1O` [NHDC, neohesperidin dihydrochalcone] are 1.1, 0.84 ± 0.09 and 55.4 ± 18.4 µM.
